Where two headings read alike, the source gives them in different places.
Columns and labels:
GluA2Qflip AMPA receptor = GluA2Qflip AMPA receptor (Rattus norvegicus, UniProt P19491); settings: for Ki: from A/A(I) vs inhibitor concentration; for inhibition by A/A(I), ratio of whole-cell current amplitude in absence and presence of aptamer: 1 μM aptamer (FIG. 3, FIG. 5)
Protocol: The putative inhibitory property of the four sequences was then functionally tested by the use of whole-cell current recording with GluA2Qflip expressed in HEK-293 cells. […] The current was recorded at −60 mV, pH 7.4 and 22° C. with the same HEK-293 cells expressing GluA2Qflip that were used for selection.
The procedure for whole-cell current recording used to assay putative aptamers is known in the art. For the present invention, all recordings were at −60 mV and 22° C. The recording electrode was filled with the buffer (in mM): 110 CsF, 30 CsCl, 4 NaCl, 0.5 CaCl2, 5 EGTA, and 10 HEPES (pH 7.4 adjusted by CsOH). The extracellular buffer composition used is described supra. All other buffers used were previously described. The whole-cell current was recorded using an Axopatch 200B amplifier at a cutoff frequency of 2-20 kHz by a built-in, four-pole Bessel filter and digitized at 5-50 kHz sampling frequency using a Digidata 1322A (Molecular Devices). pClamp 8 (Molecular Devices, Sunnyvale Calif.) was used for data acquisition.
Using whole-cell recording, the putative inhibitory property for each aptamer was tested with HEK 293 cells expressing GluA2Qflip receptors and expressed as the ratio of the whole-cell current amplitude in the absence and presence of an aptamer, that is, A/A(I). The current was recorded at −60 mV, pH 7.4 and 22° C. with the same HEK-293 cell expressing GluA2Qflip.
Selected RNA sequences were assayed using whole-cell current recording with GluA2Qflip. […] The third round of the library or “pool 3” at 1 μM was used as a control. The ‘*’ indicates P≦0.05 from the two-tailed Student's t test (H0: μ=μ0=1, 1 being the theoretical value of no inhibition, marked as the dashed line).
The ratio of the whole-cell current amplitude in the absence and presence of a putative aptamer or A/A(I) as a function of aptamer concentration was used to independently measure inhibition constants (29), as illustrated in Equations 7a and 7b (29). These equations were derived based on the same general mechanism of channel opening described earlier. KI, app is the apparent inhibition constant for the inhibitor;
Thus the inhibition constant for the closed-channel conformation or state was determined from A/A(I) vs. inhibitor concentration by Equations 7a and 7b. Likewise, at a saturating ligand concentration (i.e., L>>K1), the majority of the receptors were in the open-channel state. Thus the inhibition constant for the open-channel state was determined.
The original cDNAs in pBlueScript encoding rat GluA1, 2 and 3 AMPA receptors and GluK2 kainate receptor were kindly provided by Steve Heinemann. The GluA4 DNA plasmid was kindly provided by Peter Seeburg. The GluK1 plasmid was kindly provided by Geoffrey Swanson. The cDNAs of all three NMDA receptor subunits were gifts from John Woodward. All DNA plasmids were propagated using Escherichia coli host (DH5α) and purified using QIAGEN DNA purification kits.
All of the receptors were transiently expressed in HEK-2935 cell. HEK-293S cells were maintained in Dulbecco's modified Eagle's medium (DMEM) supplemented with 10% fetal bovine serum and 1% penicillin in a 37° C., 5% CO2, humidified incubator. Receptors were transiently transfected by using calcium phosphate or lipofectamine 2000 (Invitrogen). The DNA plasmids encoding green fluorescent protein (GFP) and T-antigen (TAg) were cotransfected in HEK-293S cells. GFP was used as a transfection marker for cell recording, and TAg was cotransfected to potentiate the receptor expression at the single-cell level (51). Transfected cells were allowed to grow for 48 hour before they were used for recording.
The procedure for whole-cell current recording to assay the inhibitory property of an RNA aptamer is known to those of skill in the art and has been previously described (47). […] The extracellular buffer composition is described above (see “Receptor Preparation”).

GluA1flip = GluA1flip (Rattus norvegicus, UniProt P19490); test: Subunit selectivity, whole-cell recording, GluA1; format: cell-based; settings: closed- and open-channel glutamate concentrations
Sequence of GluA1flip (P19490 19-907 isoform P19490-2 limits assumed): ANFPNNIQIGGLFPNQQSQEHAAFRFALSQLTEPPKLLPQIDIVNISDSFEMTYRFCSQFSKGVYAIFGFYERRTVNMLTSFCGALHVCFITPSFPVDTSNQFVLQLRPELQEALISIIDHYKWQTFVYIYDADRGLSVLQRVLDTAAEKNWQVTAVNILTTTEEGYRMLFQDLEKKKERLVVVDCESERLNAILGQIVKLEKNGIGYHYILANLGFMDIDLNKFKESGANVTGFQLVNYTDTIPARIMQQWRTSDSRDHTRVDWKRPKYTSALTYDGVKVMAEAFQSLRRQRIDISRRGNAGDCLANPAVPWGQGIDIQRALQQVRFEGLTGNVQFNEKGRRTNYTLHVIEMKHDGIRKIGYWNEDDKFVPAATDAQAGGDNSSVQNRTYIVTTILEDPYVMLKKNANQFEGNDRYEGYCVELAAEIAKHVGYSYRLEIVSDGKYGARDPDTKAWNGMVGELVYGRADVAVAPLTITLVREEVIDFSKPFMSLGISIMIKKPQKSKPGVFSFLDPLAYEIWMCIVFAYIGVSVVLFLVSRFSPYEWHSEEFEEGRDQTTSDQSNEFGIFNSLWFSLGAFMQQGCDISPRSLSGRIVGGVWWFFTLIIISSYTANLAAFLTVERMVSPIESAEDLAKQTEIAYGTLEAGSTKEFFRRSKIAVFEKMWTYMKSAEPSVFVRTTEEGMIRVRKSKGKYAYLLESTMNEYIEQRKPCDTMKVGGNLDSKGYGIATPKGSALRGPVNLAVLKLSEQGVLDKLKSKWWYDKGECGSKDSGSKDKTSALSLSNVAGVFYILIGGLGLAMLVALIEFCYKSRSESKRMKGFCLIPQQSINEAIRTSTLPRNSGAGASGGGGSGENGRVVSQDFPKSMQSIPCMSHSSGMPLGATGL
Protocol: The subunit selectivity of AF44/AF42 was assessed with individual subunits of AMPA, kainate and NMDA receptors expressed in HEK-293 cells, and was represented by A/A(I) value collected from whole-cell recording (FIG. 8A).
All of the receptors were transiently expressed in HEK-2935 cell. HEK-293S cells were maintained in Dulbecco's modified Eagle's medium (DMEM) supplemented with 10% fetal bovine serum and 1% penicillin in a 37° C., 5% CO2, humidified incubator. Receptors were transiently transfected by using calcium phosphate or lipofectamine 2000 (Invitrogen). The DNA plasmids encoding green fluorescent protein (GFP) and T-antigen (TAg) were cotransfected in HEK-293S cells. GFP was used as a transfection marker for cell recording, and TAg was cotransfected to potentiate the receptor expression at the single-cell level (51). […]
For recording of the NMDA channels, the intracellular solution contained (in mM) 140 CsCl, 1 MgCl2, 0.1 EGTA, and 10 HEPES (pH 7.2 adjusted by Mg(OH)2), while the extracellular solution contained (in mM) 135 NaCl, 5.4 KCl, 1.8 CaCl2, 10 glucose and 5 HEPES (pH 7.2 adjusted by NaOH). […] The whole-cell current was recorded using an Axopatch-200B amplifier at a cutoff frequency of 2-20 kHz by a built-in, eight-pole Bessel filter and digitized at 5-50 kHz sampling frequency using a Digidata 1322A from Axon Instruments (Molecular Devices, Sunnyvale, Calif.). […]

GluA2Qflip receptor = GluA2Qflip receptor (Rattus norvegicus, UniProt P19491); test: Homologous competition binding assay (cold vs hot aptamer); settings: for binding to the receptor in the presence of NBQX: competitive inhibitor, data not shown; for Kd: triplicate data sets
Sequence of GluA2Qflip receptor (P19491 22-883 isoform P19491-2 limits assumed): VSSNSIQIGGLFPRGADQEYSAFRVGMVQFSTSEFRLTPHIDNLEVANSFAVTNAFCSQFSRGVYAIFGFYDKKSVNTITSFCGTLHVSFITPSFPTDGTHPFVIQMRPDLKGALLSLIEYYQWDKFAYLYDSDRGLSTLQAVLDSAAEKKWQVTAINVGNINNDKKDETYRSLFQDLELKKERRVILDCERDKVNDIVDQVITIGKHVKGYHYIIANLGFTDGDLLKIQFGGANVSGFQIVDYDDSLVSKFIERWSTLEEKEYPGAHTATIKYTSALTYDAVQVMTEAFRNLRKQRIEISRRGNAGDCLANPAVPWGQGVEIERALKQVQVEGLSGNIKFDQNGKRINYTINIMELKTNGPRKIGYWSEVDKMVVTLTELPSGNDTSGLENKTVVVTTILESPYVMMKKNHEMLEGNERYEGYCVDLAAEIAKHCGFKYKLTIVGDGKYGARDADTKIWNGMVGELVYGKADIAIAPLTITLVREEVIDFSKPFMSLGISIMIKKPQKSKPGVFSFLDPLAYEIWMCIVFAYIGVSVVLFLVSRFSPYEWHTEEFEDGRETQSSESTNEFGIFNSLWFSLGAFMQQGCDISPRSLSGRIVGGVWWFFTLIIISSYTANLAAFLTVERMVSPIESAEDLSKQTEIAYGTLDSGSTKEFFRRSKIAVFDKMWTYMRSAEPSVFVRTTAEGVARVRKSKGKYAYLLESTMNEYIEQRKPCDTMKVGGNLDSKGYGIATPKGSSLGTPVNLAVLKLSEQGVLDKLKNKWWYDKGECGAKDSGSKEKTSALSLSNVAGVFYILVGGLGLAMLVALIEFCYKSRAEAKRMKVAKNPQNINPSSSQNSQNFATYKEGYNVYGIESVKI
Text: (§1) In fact, in a homologous competition binding experiment (42) in which the non-radiolabeled aptamer (or cold aptamer) was used to compete against the same, but radiolabeled, aptamer (or hot aptamer), AF44 bound to not only the closed-channel conformation (i.e., the unliganded, closed-channel receptor form) but also the open-channel conformation (FIG. 10). […] The binding results were consistent with noncompetitive sites, because these sites were supposed to be accessible through both the closed- and the open-channel conformations. […] These sites were noncompetitive type because binding to the receptor by either AF44 or AF42 or the full length AF1422 was unaffected in the presence of NBQX, a classic competitive inhibitor.
as §1, with “inhibitor (data not shown).” for “inhibitor.”

[1] = open-channel GluA2Qflip, read-out: Kd, open-channel conformation
[2] = unliganded, closed-channel GluA2Qflip, read-out: Kd, closed-channel conformation

Sequence of GluA2Qflip AMPA receptor (P19491 22-883 isoform P19491-2 limits assumed): as above

With `CNC(=O)N1N=C(c2ccc(N)cc2)c2cc3c(cc2CC1C)OCO3` (stereo not shown) [BDZ-f, 1-(4-aminophenyl)-3-methylcarbamoyl-4-methyl-7,8-methylenedioxy-3,4-dihydro-5H-2,3-benzodiazepine, reference compound] the “inhibition of the non-desensitizing phase of the receptor response” value (GluA2Qflip AMPA receptor; 0.1 mM glutamate, AF44/AF42 up to 12.5 μM, BDZ-f up to 20 μM) was “uninhibited”, the “inhibition of GluA2Qflip in the subunit selectivity test, A/A(I)” value (GluA2Qflip AMPA receptor; FIG. 8A/8B, two glutamate concentrations) was “inhibited” and the Ki (GluA2Qflip AMPA receptor; KI for the closed-channel conformation, 100 μM glutamate, -60 mV, 22 °C) was 3800 ± 400 nM. The Ki (GluA2Qflip AMPA receptor; KI for the open-channel conformation, 3 mM glutamate) was 5400 ± 800 nM and the “effect on GluA1, A/A(I)” value (GluA1flip) was “inhibited”.

In the case of “AF20: truncated AF1422 containing only the 5' stem loop, SEQ ID NO: 7 (GGGAGAAUUCAACUGCCAUC; listed as RNA, chemistry not fully specified)”, the “inhibition by A/A(I), ratio of whole-cell current amplitude in absence and presence of aptamer” value (from here on “inhibition by A/A(I), ratio”) (GluA2Qflip AMPA receptor; 100 μM glutamate) is reported as “not sufficient to act either alone as an inhibitor or together with AF42 as an inhibitory pair”.

For “AF38: AF42 with terminal loop removed, SEQ ID NO: 6 (GGGUCGUUAGAGCAUCAGUACACCAACGGUGCGAGCCC; listed as RNA, chemistry not fully specified)”, the “inhibition by A/A(I), ratio” value (GluA2Qflip AMPA receptor; 100 μM glutamate) was “total loss of function”.

“AF42: 42-nucleotide RNA truncated from AF1422, SEQ ID NO: 5 (GGGAACGGUGCCAGUCCGAAACGGAUCGUUAGAGCAUCAGUA; listed as RNA, chemistry not given here)” was tested, and the “binding to the receptor in the presence of NBQX” value (from here on “binding to the receptor”) (GluA2Qflip receptor) was “unaffected”, the Kd (GluA2Qflip receptor; [1]) was 44 ± 11 nM and the Kd (GluA2Qflip receptor; [2]) was 57 ± 21 nM. The “inhibition by A/A(I), ratio” value (GluA2Qflip AMPA receptor; 100 μM glutamate) was “did not render any inhibition”.

In the case of “AF44: 44-nucleotide RNA truncated from AF1422, G22 replaced with A22, SEQ ID NO: 4 (GGGAGAAUUCAACUGCCACGGAUAAUAGCCAAUACUACAACCGU; listed as RNA, chemistry not given here)”, the “binding to the receptor” value (GluA2Qflip receptor) is reported as “unaffected”, the Kd (GluA2Qflip receptor; [1]) is reported as 48 ± 13 nM and the Kd (GluA2Qflip receptor; [2]) is reported as 44 ± 18 nM. For the same molecule, the “inhibition by A/A(I), ratio” value (GluA2Qflip AMPA receptor; 100 μM glutamate) was “did not render any inhibition”.

B1: AF78: truncated sequence of AF1422, SEQ ID NO: 3, lacking the 5' stem-loop (nucleic acid)
chain: GGGAGCCAGAAGUGUAAUAGCCAACGGUGCCAGUCCGAAACGGAUCGUUAGAGCAUCAGUACUACAAGCUUCUGGACU
modifications: listed as RNA, chemistry not fully specified
B1 was tested, and the “inhibition by A/A(I), ratio” value (GluA2Qflip AMPA receptor; 100 μM glutamate) was “non-inhibitory”.

B2: AF1422: RNA aptamer, SEQ ID NO: 1, most enriched SELEX sequence binding closed-channel GluA2Qflip (nucleic acid)
chain: GGGAGAAUUCAACUGCCAUCUAGGCAGAAGUGUAAUAGCCAACGGUGCCAGUCCGAAACGGAUCGUUAGAGCAUCAGUACUACAAGCUUCUGGACUCGGU
modifications: listed as RNA, chemistry not given here
In the case of B2, the “binding to the receptor” value (GluA2Qflip receptor) is reported as “unaffected”, the “inhibition by A/A(I), ratio” value (GluA2Qflip AMPA receptor; 100 μM glutamate) is reported as “one of the most potent inhibitors” and the “inhibition of closed-channel versus open-channel conformation” value (GluA2Qflip AMPA receptor; low (100 μM) vs high (3 mM) glutamate) is reported as “inhibited the closed-channel, preferentially over the open-channel”.

— patent publication US9200286B2 (THE RESEARCH FOUNDATION FOR THE STATE UNIVERSITY OF NEW YORK, priority 2010, dated 2015)
